Data from ChEMBL document CHEMBL6121051, “Dendritic Antifungal Peptides as Potent Agents against Drug-Resistant Candida albicans and Biofilm” (J Med Chem, 2025).
Values after ≈ are worked out from the molar mass of the structure shown. Active and inactive are the calls of the source. The calls are words filed in the database; no cut-off is given here. Positions of bridges follow the written chain, without caps; N, C: chain ends. Residues, ends and D or L forms follow the SMILES beside them. Groups on a side chain read outwards from the residue. Chains are numbered I, II in the order given. *: point of attachment. Lauroyl = CCCCCCCCCCCC(=O)*; Octanoyl = CCCCCCCC(=O)*; Butyryl = CCCC(=O)*

What was measured:
Candida albicans [1] = assay: Antifungal activity against Candida albicans SP 3903 assessed as inhibition of fungal growth incubated for 48 hrs; type: functional
Candida albicans [2] = assay: Antifungal activity against Candida albicans cgmcc 2.2086 assessed as inhibition of fungal growth incubated for 48 hrs; type: functional
Candida albicans [3] = assay: Antifungal activity against Candida albicans SP 3902 assessed as inhibition of fungal growth incubated for 48 hrs; type: functional
[4] = Cytotoxicity against mouse RAW264.7 cells assessed as cell survival rate at 128 ug/ml incubated for 4 hrs by MTT assay; type: toxicity, cell-based; conditions: dose 128 µg/ml, read-out: Activity
Candida albicans [5] = assay: Antifungal activity against Candida albicans 17546 assessed as inhibition of fungal growth incubated for 48 hrs; type: functional
Candida albicans [6] = assay: Antifungal activity against Candida albicans 2.3989 assessed as inhibition of fungal growth incubated for 48 hrs; type: functional
[7] = Toxicity against human RBC assessed as hemolysis rate at 128 ug/ml incubated for 1 hr; type: cell-based, Erythrocyte; conditions: red blood cells (RBC), dose 128 µg/ml, read-out: Activity
HEK-293T = assay: Cytotoxicity against human HEK293T cells assessed as cell viability at 8 to 128 ug/ml incubated for 4 hrs by MTT assay; type: toxicity, cell-based; conditions: dose 8-128 µg/ml
[8] = Cytotoxicity against human HEK293T cells assessed as cell survival rate at 128 ug/ml incubated for 4 hrs by MTT assay; type: toxicity, cell-based, HEK-293T; conditions: dose 128 µg/ml, read-out: Activity
Candida albicans [9] = assay: Antifungal activity against Candida albicans 14936 assessed as inhibition of fungal growth incubated for 48 hrs; type: functional
Candida albicans [10] = assay: Antifungal activity against Candida albicans SP 3931 assessed as inhibition of fungal growth incubated for 48 hrs; type: functional
Candida albicans [11] = assay: Antifungal activity against Candida albicans 58288 assessed as inhibition of fungal growth incubated for 48 hrs; type: functional
Candida albicans [12] = assay: Antifungal activity against fluconazole-resistant Candida albicans 56214 assessed as inhibition of fungal growth incubated for 48 hrs; type: functional
Candida albicans [13] = assay: Antifungal activity against fluconazole-resistant Candida albicans 56214 infected in ICR mouse assessed as elimination of fungal hyphae on the infected skin at 1 mg/ml administered topically bid for 3 days starting at 12 hrs post-infection and measured after 7 days by PAS staining; type: functional, organism-based; conditions: time 7.0 day
Candida albicans [14] = assay: (§1) Antifungal activity against fluconazole-resistant Candida albicans 56214 infected in ICR mouse assessed as reduction in TNF-alpha expression in skin wound at 1 mg/ml administered topically bid for 3 days starting at 12 hrs post-infection and measured after 7 days by immunofluorescence analysis; type: functional, organism-based; conditions: time 7.0 day
Candida albicans [15] = assay: Antifungal activity against fluconazole-resistant Candida albicans 56214 infected in ICR mouse assessed as reduction in IL-6 expression in skin wound at 1 mg/ml administered topically bid for 3 days starting at 12 hrs post-infection and measured after 7 days by immunofluorescence analysis; type: functional, organism-based; conditions: time 7.0 day
Candida albicans [16] = assay: as §1, with “oxidative stress by measuring decrease in ROS accumulation” for “TNF-alpha expression”, “wounds” for “wound”, “fluorescence staining based” for “immunofluorescence”; type: functional, organism-based; conditions: time 7.0 day
Candida albicans [17] = assay: Antifungal activity against fluconazole-resistant Candida albicans 56214 infected in ICR mouse assessed as reduction in severity of skin infection at 1 mg/ml administered topically bid for 3 days starting at 12 hrs post-infection and measured after 7 days by PAS staining based analysis; type: functional, organism-based; conditions: time 7.0 day
Candida albicans [18] = assay: Antifungal activity against fluconazole-resistant Candida albicans 56214 infected in ICR mouse assessed as wound healing with appearance of new skin tissue at 1 mg/ml administered topically bid for 3 days starting at 12 hrs post-infection and measured for 6 days; type: functional, organism-based; conditions: time 6.0 day

| SMILES | MIC (Candida albicans [1]) [µM] | MIC (Candida albicans [2]) [µM] | MIC (Candida albicans [3]) [µM] | viability at 4 h, 128 ug/ml [4] [%] | MIC (Candida albicans [5]) [µM] | MIC (Candida albicans [6]) [µM] | hemolysis at 1 h, 128 ug/ml [7] [%] | Activity (HEK-293T) | viability at 4 h, 128 ug/ml [8] [%] | MIC (Candida albicans [9]) [µM] | MIC (Candida albicans [10]) [µM] | MIC (Candida albicans [11]) [µM] | MIC (Candida albicans [12]) [µM] | Activity (Candida albicans [13]) | Activity (Candida albicans [14]) | Activity (Candida albicans [15]) | Activity (Candida albicans [16]) | Activity (Candida albicans [17]) | Activity (Candida albicans [18]) |
| --- | --- | --- | --- | --- | --- | --- | --- | --- | --- | --- | --- | --- | --- | --- | --- | --- | --- | --- | --- |
| CCCCCCCCCCCC(=O)NCC(=O)NCC(=O)NCC(=O)N[C@@H](CCCCNC(=O)[C@@H]1CCCN1C(=O)[C@H](CCCNC(=N)N)NC(=O)[C@@H]1CCCN1C(=O)[C@H](CCCNC(=N)N)NC(=O)[C@@H]1CCCN1C(=O)[C@@H](N)CCCNC(=N)N)C(=O)N[C@@H](CCCCNC(=O)[C@@H]1CCCN1C(=O)[C@H](CCCNC(=N)N)NC(=O)[C@@H]1CCCN1C(=O)[C@H](CCCNC(=N)N)NC(=O)[C@@H]1CCCN1C(=O)[C@@H](N)CCCNC(=N)N)C(=O)N[C@@H](CCCNC(=N)N)C(=O)N1CCC[C@H]1C(=O)N[C@@H](CCCNC(=N)N)C(=O)N1CCC[C@H]1C(=O)N[C@@H](CCCNC(=N)N)C(=O)N1CCC[C@H]1C(N)=O (I: Lauroyl-GGGKKRPRPRP-NH2 / II: H-RPRPRP / III: H-RPRPRP; amide I:4-II:C, I:5-III:C) | 8 (≈ 23.3 µg/mL) | 16 (≈ 46.5 µg/mL) | 8 (≈ 23.3 µg/mL) | 50 | 32 (≈ 93 µg/mL) | 64 (≈ 186 µg/mL) | < 2 | Non-toxic | 95 | 16 (≈ 46.5 µg/mL) | 32 (≈ 93 µg/mL) | 32 (≈ 93 µg/mL) | 8 (≈ 23.3 µg/mL) | – | – | – | – | – | – |
| CCCCCCCCCCCC(=O)NCC(=O)NCC(=O)NCC(=O)N[C@@H](CCCCNC(=O)[C@@H]1CCCN1C(=O)[C@H](CCCNC(=N)N)NC(=O)[C@@H]1CCCN1C(=O)[C@@H](N)CCCNC(=N)N)C(=O)N[C@@H](CCCCNC(=O)[C@@H]1CCCN1C(=O)[C@H](CCCNC(=N)N)NC(=O)[C@@H]1CCCN1C(=O)[C@@H](N)CCCNC(=N)N)C(=O)N[C@@H](CCCNC(=N)N)C(=O)N1CCC[C@H]1C(=O)N[C@@H](CCCNC(=N)N)C(=O)N1CCC[C@H]1C(N)=O (Lauroyl-GGGK([Pro-Arg-Pro-Arg])K([Pro-Arg-Pro-Arg])RPRP-NH2) | 64 (≈ 137 µg/mL) | 16 (≈ 34.3 µg/mL) | 32 (≈ 68.7 µg/mL) | – | 32 (≈ 68.7 µg/mL) | 64 (≈ 137 µg/mL) | < 2 | Non-toxic | 95 | 32 (≈ 68.7 µg/mL) | 64 (≈ 137 µg/mL) | 64 (≈ 137 µg/mL) | 64 (≈ 137 µg/mL) | – | – | – | – | – | – |
| CCCCCCCC(=O)NCC(=O)NCC(=O)NCC(=O)N[C@@H](CCCCNC(=O)[C@@H]1CCCN1C(=O)[C@H](CCCNC(=N)N)NC(=O)[C@@H]1CCCN1C(=O)[C@@H](N)CCCNC(=N)N)C(=O)N[C@@H](CCCCNC(=O)[C@@H]1CCCN1C(=O)[C@H](CCCNC(=N)N)NC(=O)[C@@H]1CCCN1C(=O)[C@@H](N)CCCNC(=N)N)C(=O)N[C@@H](CCCNC(=N)N)C(=O)N1CCC[C@H]1C(=O)N[C@@H](CCCNC(=N)N)C(=O)N1CCC[C@H]1C(N)=O (Octanoyl-GGGK([Pro-Arg-Pro-Arg])K([Pro-Arg-Pro-Arg])RPRP-NH2) | > 128 | > 128 | > 128 | – | > 128 | > 128 | < 2 | Non-toxic | 95 | > 128 | > 128 | > 128 | > 128 | – | – | – | – | – | – |
| C[C@@H]1[C@H](O)[C@@H](C)/C=C/C=C/C=C/C=C/C=C/C=C/C=C/[C@H](O[C@@H]2O[C@H](C)[C@@H](O)[C@H](N)[C@@H]2O)C[C@@H]2O[C@](O)(C[C@@H](O)C[C@@H](O)[C@H](O)CC[C@@H](O)C[C@@H](O)CC(=O)O[C@H]1C)C[C@H](O)[C@H]2C(=O)O | – | – | – | – | – | – | – | – | – | – | – | – | – | Active | Active | Active | Active | Active | Active |
| CCCCCCCC(=O)NCC(=O)NCC(=O)NCC(=O)N[C@@H](CCCCNC(=O)[C@@H]1CCCN1C(=O)[C@H](CCCNC(=N)N)NC(=O)[C@@H]1CCCN1C(=O)[C@H](CCCNC(=N)N)NC(=O)[C@@H]1CCCN1C(=O)[C@@H](N)CCCNC(=N)N)C(=O)N[C@@H](CCCCNC(=O)[C@@H]1CCCN1C(=O)[C@H](CCCNC(=N)N)NC(=O)[C@@H]1CCCN1C(=O)[C@H](CCCNC(=N)N)NC(=O)[C@@H]1CCCN1C(=O)[C@@H](N)CCCNC(=N)N)C(=O)N[C@@H](CCCNC(=N)N)C(=O)N1CCC[C@H]1C(=O)N[C@@H](CCCNC(=N)N)C(=O)N1CCC[C@H]1C(=O)N[C@@H](CCCNC(=N)N)C(=O)N1CCC[C@H]1C(N)=O (I: Octanoyl-GGGKKRPRPRP-NH2 / II: H-RPRPRP / III: H-RPRPRP; amide I:4-II:C, I:5-III:C) | 8 (≈ 22.8 µg/mL) | 2 (≈ 5.7 µg/mL) | 16 (≈ 45.6 µg/mL) | – | 4 (≈ 11.4 µg/mL) | 64 (≈ 182 µg/mL) | < 2 | Non-toxic | 95 | 4 (≈ 11.4 µg/mL) | 16 (≈ 45.6 µg/mL) | 8 (≈ 22.8 µg/mL) | 8 (≈ 22.8 µg/mL) | – | – | – | – | – | – |
| OC(Cn1cncn1)(Cn1cncn1)c1ccc(F)cc1F [FLUCONAZOLE] | 2 (≈ 0.613 µg/mL) | 4 (≈ 1.23 µg/mL) | 4 (≈ 1.23 µg/mL) | – | 2 (≈ 0.613 µg/mL) | 4 (≈ 1.23 µg/mL) | – | – | – | 2 (≈ 0.613 µg/mL) | 2 (≈ 0.613 µg/mL) | 8 (≈ 2.45 µg/mL) | > 128 | – | – | – | – | – | – |
| CCCC(=O)NCC(=O)NCC(=O)NCC(=O)N[C@@H](CCCCNC(=O)[C@@H]1CCCN1C(=O)[C@H](CCCNC(=N)N)NC(=O)[C@@H]1CCCN1C(=O)[C@@H](N)CCCNC(=N)N)C(=O)N[C@@H](CCCCNC(=O)[C@@H]1CCCN1C(=O)[C@H](CCCNC(=N)N)NC(=O)[C@@H]1CCCN1C(=O)[C@@H](N)CCCNC(=N)N)C(=O)N[C@@H](CCCNC(=N)N)C(=O)N1CCC[C@H]1C(=O)N[C@@H](CCCNC(=N)N)C(=O)N1CCC[C@H]1C(N)=O (Butyryl-GGGK([Pro-Arg-Pro-Arg])K([Pro-Arg-Pro-Arg])RPRP-NH2) | > 128 | > 128 | > 128 | – | > 128 | > 128 | < 2 | Non-toxic | 95 | > 128 | > 128 | > 128 | > 128 | – | – | – | – | – | – |
